These results are taken from paper PMC5573760 (Cancer Chemotherapy and Pharmacology, 2017).

One series is described as follows: clinical. Particulars: male, human, in vivo; for clearance: CL (total body clearance); for Tmax: t max; for half-life: t ½ (terminal half-life). The method, then:
All subjects gave written informed consent; the study was conducted at PRA Health Sciences (Zuidlaren, The Netherlands) in accordance with the Declaration of Helsinki and was approved by an accredited institutional ethics committee (Medisch Ethische Toetsings Commissie, Assen, The Netherlands).
Subjects remained fasting until 2-h after the end of the infusion. Volunteers stayed in-house until 14 days after the application and subsequently urine and feces were collected for 24-h on Day 16, 20, 27 and 34 if necessary, cf. below.
Urine was collected pre-dose, at 0–12-h and 12–24 h after the start of the infusion and thereafter over 24-h intervals on Day 2 to Day 14 as well as on Day 16, 20, 27 and 34 (±1 day). Cumulative 24-h fecal samples were collected from Day 1 (day of infusion) to Day 14 and as well as on Day 16, 20, 27 and 34 (±1 day). […] The excreted radioactivity between ambulant visits during the prolongation phase of the clinical study was calculated using interpolation to get a more realistic total excretion value of all subjects (see "Pharmacokinetic analysis").
All samples were frozen at −70 °C and analyzed within 60 days of sample collection.
For blood/plasma ratio determination, total radioactivity in urine and feces well as data from HPLC analysis data from radioactivity measurement by liquid scintillation counting (LSC) were considered. The amount of radioactivity recovered in the excreta (A E) was related to the administered radioactive dose to establish the radioactive balance. Arithmetic means and coefficients of variation (CV) were calculated for these percentages. […] Cumulative excretion was calculated as sum of the collection intervals. The elimination of the total radioactivity in urine and feces for time-points beyond day 14 was performed by log-linear extrapolation between analyzed time-points. Amounts of radioactivity excreted in urine and feces between two ambulant visits were calculated per interpolated day by linear interpolation of log-transformed excretion data separately per matrix (lnA E(interpolated day) = Δdays × [lnA E(Visit i + 1) − lnA E(Visit i)]/[day (Visit i + 1) − day (Visit i)] + lnA E(Visit i), with A E given as amount of radioactivity excreted in matrix per day and Δdays being the difference between the calculated day and the last available visit with A E > 0). In case no feces sample was provided on an ambulant visit, this visit was neglected for interpolation. A similar approach has been described earlier. The concentration/amount for each component of each sample/time-point was calculated by multiplying the total radioactivity concentration/amount of each sample with %-area of each component obtained after off-line HPLC separation. The amount of radioactivity in urine and feces at late time-points where no component was detected was distributed in the same percentage to the component (s) present at the time-point before.
Compartment-free analysis was performed employing WinNonlin software (version 5.3, Pharsight Certara, Princton, NJ, USA).
Pharmacokinetic parameters were evaluated by descriptive data analysis without formal hypothesis testing by calculating either medians (t max, t last) or geometric means and %CV (remaining parameters). Excretion data (urine, feces, total) were evaluated by arithmetic means.

The next series concerns P-glycoprotein (P-gp). The arrangement: method as in Bayer AG, data on file. Particulars: in vitro; ref Bayer AG, data on file; cited from earlier work.

As usually defined, the clearance is the volume of plasma or blood freed of the substance per unit of time. Higher therefore signals a high capacity for elimination. Usually Vd stands for the apparent volume that relates the amount in the body to the concentration in plasma or blood. The term Tmax denotes the time from dosing to the highest level. As a reminder, the half-life is the time needed for the level to fall by half in the phase considered. Take `COc1c(OCCCN2CCOCC2)ccc2c1N=C(NC(=O)c1cnc(N)nc1)N1CCN=C21` [Copanlisib, copanlisib]: the “AUC (0–t last) of total radioactivity (%) covered by the component, average” value in “clinical” is on record as “about 84%”. In addition, in the series “clinical” (iv), the “CL (total body clearance), geometric mean (%CV)” value is 24.8 (41.3%) L/h; the “t ½ (terminal half-life), geometric mean (%CV)” value is 52.1 (20.9%) h; the “t ½ (terminal half-life), range” value lay within 40.4 to 67.5 h. In the series “clinical” (iv, geometric mean (%CV)), this compound had a clearance of approximately 413 mL/min and a half-life of 52 h. In “clinical” (iv, range), the clearance was 237 to 680 mL/min, the Tmax lay within 0.5 to 1 h and the half-life lay within 40 to 67 h. The compound also showed a Vd in the series “clinical” (iv, V z (volume of distribution during terminal phase), geometric mean (%CV)) of approximately 1870 L. In the series “clinical” (iv, V z, range), this compound came in with a volume of distribution (Vd) of 1250 to 2450 L. For the same compound, the Tmax in “clinical” (iv, median) was determined as 1 h. Moreover, the “Substrate of efflux transporter P-gp” value with P-glycoprotein (P-gp) is “substrate”.
